One test addresses T1, PRMT5-MEP50 enzyme (Homo sapiens, UniProt O14744).
T1 construct: One virus expresses full length human PRMT5 with Flag-tag at N-terminus
Briefly: In vitro assay (Assay 1): PRMT5-MEP50 high throughput mass spectrometer assay, inhibition of SAH formation. The following applies: individual measurements shown; for IC50: read-out: pIC50 Assay 1 (converted). Type of test: biochemical. A digest of the protocol: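 Flag-PRMT5/His-MEP50 full-length human complex (Sf9-expressed), 10 nM, with 1 μM SAM and 0.3 μM histone H2A in 20 mM Tris-HCl pH 8.5, 50 mM NaCl, 5 mM MgCl2, 1 mM DTT; 60 min at 30 °C, quenched with 1% formic acid. SAH quantified by RapidFire MS; IC50 from 11-point 1:2 series fitted to four-parameter Hill equation.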

The subject of a further test is A549 cells. Put plainly: PD assay (Assay 2): inhibition of nuclear symmetric Arginine dimethylation (SYM10 immunohistochemistry) in A549 cells. It is filed as cell-based. The following applies: individual measurements shown; for IC50: Homo sapiens, A549, PD assay in A549 cells, read-out: pIC50 Assay 2 (converted); for pIC50 Assay 2: PD assay in A549 cells. A digest of the protocol: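 A549 cells dosed with a nine-point series (0.2% DMSO) for 48 h at 37° C, then fixed and immunostained with SYM10 anti-symmetric-dimethylarginine antibody, plus Hoechst and CellMask counterstains for high-content imaging. Nuclear signal normalized between DMSO and 10 μM reference-compound controls to derive IC50/pIC50.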

These results are taken from patent US10898504B2, “Substituted nucleoside analogues for use as PRMT5 inhibitors” (Janssen Pharmaceutica NV, priority 2016, dated 2021).

“And” between values parts separate entries of the source, which are not always exact repeats. Identical values can stand only once. Where only a bound is given, the exact number is not on record here.

T1 sequence (O14744 whole entry): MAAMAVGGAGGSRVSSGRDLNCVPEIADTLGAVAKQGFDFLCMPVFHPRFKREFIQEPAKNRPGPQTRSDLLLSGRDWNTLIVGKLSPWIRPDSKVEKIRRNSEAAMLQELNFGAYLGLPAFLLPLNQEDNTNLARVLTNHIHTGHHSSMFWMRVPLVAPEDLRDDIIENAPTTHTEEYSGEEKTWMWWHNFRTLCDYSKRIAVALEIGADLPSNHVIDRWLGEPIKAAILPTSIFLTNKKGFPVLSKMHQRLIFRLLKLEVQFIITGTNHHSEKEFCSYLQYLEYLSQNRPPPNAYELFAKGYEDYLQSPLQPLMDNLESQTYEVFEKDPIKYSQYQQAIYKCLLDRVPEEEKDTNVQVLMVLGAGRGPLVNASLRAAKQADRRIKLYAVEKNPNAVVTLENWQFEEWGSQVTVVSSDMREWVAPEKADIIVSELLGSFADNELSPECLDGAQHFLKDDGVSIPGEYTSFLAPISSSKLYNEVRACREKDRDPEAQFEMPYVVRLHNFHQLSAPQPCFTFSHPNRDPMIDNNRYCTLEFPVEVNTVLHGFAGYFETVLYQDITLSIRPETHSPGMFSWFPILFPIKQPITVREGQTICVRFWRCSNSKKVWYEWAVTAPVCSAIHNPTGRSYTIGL
T1 sequence (Q9BQA1 whole entry partner): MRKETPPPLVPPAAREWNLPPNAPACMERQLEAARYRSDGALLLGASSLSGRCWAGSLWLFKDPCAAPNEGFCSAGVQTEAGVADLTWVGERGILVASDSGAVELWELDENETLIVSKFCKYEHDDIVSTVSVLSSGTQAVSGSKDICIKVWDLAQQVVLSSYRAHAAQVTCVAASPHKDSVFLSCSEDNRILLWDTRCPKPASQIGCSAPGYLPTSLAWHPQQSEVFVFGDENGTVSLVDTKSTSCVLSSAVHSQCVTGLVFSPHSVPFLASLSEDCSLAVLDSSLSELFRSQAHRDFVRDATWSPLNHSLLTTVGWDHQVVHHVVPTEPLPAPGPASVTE

For the molecule `CN(C)C[C@@H]1CC(F)(F)CCN1C[C@H]1O[C@@H](c2ccc3c(N)ncnn23)[C@H](O)[C@@H]1O` [Compound 157], the IC50 on PRMT5-MEP50 enzyme is over 10 µM; in the test with A549 cells, over 20 µM.
Turning to `Nc1ncnn2c([C@@H]3O[C@H](CN4CCC(F)(F)C[C@H]4CN4CCCC4)[C@@H](O)[C@H]3O)ccc12` [Compound 159], the results for the IC50 on PRMT5-MEP50 enzyme and with A549 cells were over 10 µM and over 20 µM, respectively.
With `NC[C@@H]1CC(F)(F)CCN1C[C@H]1O[C@@H](c2ccc3c(N)ncnn23)[C@H](O)[C@@H]1O` [Compound 160], the IC50 was 2.69 µM at PRMT5-MEP50 enzyme and over 20 µM in the test with A549 cells.
Turning to `Nc1ncnn2c([C@@H]3O[C@H](C(=O)N4CCCC45CCNCC5)[C@@H](O)[C@H]3O)ccc12` [Compound 161], the IC50 at PRMT5-MEP50 enzyme is 0.38 µM; in the test on A549 cells, 4.17 µM.
In the case of `CN(C)CC[C@@H]1CC(F)(F)CN1C(=O)[C@H]1O[C@@H](c2ccc3c(N)ncnn23)[C@H](O)[C@@H]1O` [Compound 162], the IC50 at PRMT5-MEP50 enzyme was 3.8 µM; with A549 cells, over 20 µM.
For `Nc1ncnc2c1ccn2[C@@H]1C[C@H](C(=O)N2CCCC23CCNCC3)[C@@H](O)[C@H]1O` [Compound 163], the IC50 on PRMT5-MEP50 enzyme is 0.00851 µM; with A549 cells, 0.126 µM.
As to `CC(C)C(=O)O[C@@H]1[C@@H](CN2CC(F)(F)CC23CCNCC3)C[C@@H](n2ccc3c(N)ncnc32)[C@@H]1OC(=O)C(C)C` [Compound 164], the IC50 on PRMT5-MEP50 enzyme was over 10 µM; in the test on A549 cells it was about 6.46 µM.
`Nc1ncnn2c([C@@H]3O[C@H](CN4CCC45CCNCC5)[C@@H](O)[C@H]3O)ccc12` [Compound 165]: the IC50 was 0.871 µM on PRMT5-MEP50 enzyme and over 10 µM with A549 cells.
Regarding `Nc1ncnc2c1ccn2[C@@H]1C[C@H](CC2=CCCC23CCNCC3)[C@@H](O)[C@H]1O` [Compound 166], the IC50 on PRMT5-MEP50 enzyme is 0.00186 µM and 0.00158 µM and 0.000631 µM. Besides, the “pIC50 Assay 2” value in the test with A549 cells was 7.41 and 7.92 and 7.87.
Consider `Nc1ncnc2c1ccn2[C@@H]1C[C@H](/C=C2\CCCC23CCNCC3)[C@@H](O)[C@H]1O` [Compound 167], for which the IC50 on PRMT5-MEP50 enzyme was 0.00316 µM and 0.00158 µM. In addition, in the test on A549 cells, the IC50 is 0.0302 µM and the “pIC50 Assay 2” value came to 7.68.
Consider `CN1CCC2(CCCN2C[C@H]2O[C@@H](n3ccc4c(N)ncnc43)[C@H](O)[C@@H]2O)CC1` [Compound 168], for which the IC50 on PRMT5-MEP50 enzyme is 0.0263 µM and 0.0174 µM and 0.00851 µM; in the test on A549 cells, 0.204 µM. Further, the “pIC50 Assay 2” value in the test on A549 cells was ~6.64 and ~6.7.
Turning to `Nc1ncnc2c1ccn2[C@@H]1O[C@H](CN2CCCC23CCN(CCC(F)(F)F)CC3)[C@@H](O)[C@H]1O` [Compound 169], the IC50 is 0.275 µM at PRMT5-MEP50 enzyme and 0.603 µM with A549 cells.
In the case of `Nc1ncnc2c1ccn2[C@@H]1O[C@H](CN2CCCC23CCN(CCc2ccc(F)cc2)CC3)[C@@H](O)[C@H]1O` [Compound 170], the IC50 at PRMT5-MEP50 enzyme is 0.0427 µM; in the test on A549 cells it was about 0.148 µM.
Regarding `Nc1ncnc2c1ccn2[C@@H]1O[C@H](CN2CCCC23CCN(Cc2ccc(F)cc2)CC3)[C@@H](O)[C@H]1O` [Compound 171], the IC50 is 1.62 µM on PRMT5-MEP50 enzyme and about 4.07 µM in the test on A549 cells.
Consider `Nc1ncnc2c1ccn2[C@@H]1O[C@H](CN2CCCC23CCN(Cc2cccnc2)CC3)[C@@H](O)[C@H]1O` [Compound 172], for which the results for the IC50 on PRMT5-MEP50 enzyme and with A549 cells were 0.309 µM and about 0.912 µM, respectively.
For `Nc1ncnc2c1ccn2[C@@H]1O[C@H](CN2CCCC23CCN(CCOc2ccc(F)cc2)CC3)[C@@H](O)[C@H]1O` [Compound 173], in that order: 0.347 µM and 0.776 µM.
Take `Nc1ncnc2c1ccn2[C@@H]1O[C@H](CN2CCCC23CCN(C2CC2)CC3)[C@@H](O)[C@H]1O` [Compound 174]: the IC50 at PRMT5-MEP50 enzyme was 0.501 µM; in the test with A549 cells it was about 2.29 µM.
The corresponding values for `Nc1ncnc2c1ccn2[C@@H]1O[C@H](CN2CCCC23CCN(Cc2ccoc2)CC3)[C@@H](O)[C@H]1O` [Compound 175] are 0.589 µM and 1.41 µM.
With `Cc1nc(CN2CCC3(CCCN3C[C@H]3O[C@@H](n4ccc5c(N)ncnc54)[C@H](O)[C@@H]3O)CC2)cs1` [Compound 176], the IC50 on PRMT5-MEP50 enzyme was 1.12 µM; in the test on A549 cells, 6.03 µM.
For the molecule `Nc1ncnc2c1ccn2[C@@H]1O[C@H](CN2CCCC23CCN(Cc2nc4ccccc4[nH]2)CC3)[C@@H](O)[C@H]1O` [Compound 177], the IC50 is 0.191 µM on PRMT5-MEP50 enzyme and 0.457 µM in the test on A549 cells.
Take `CN1CCC2(CCCN2C[C@H]2O[C@@H](n3cc(F)c4c(N)ncnc43)[C@H](O)[C@@H]2O)CC1` [Compound 178]: the IC50 was 0.0513 µM on PRMT5-MEP50 enzyme and 0.12 µM in the test on A549 cells.
In the case of `CN1CCC2(CCCN2C[C@H]2O[C@@H](n3cc(Br)c4c(N)ncnc43)[C@H](O)[C@@H]2O)CC1` [Compound 179], the IC50 on PRMT5-MEP50 enzyme was 0.0316 µM; with A549 cells, 0.0955 µM.
Consider `CN1CCC2(CCCN2C[C@H]2O[C@@H](n3cc(I)c4c(N)ncnc43)[C@H](O)[C@@H]2O)CC1` [Compound 180], for which the results for the IC50 at PRMT5-MEP50 enzyme and with A549 cells were 0.0102 µM and 0.269 µM, respectively.
For `CN1CCC2(CC1)CC(F)(F)CN2C[C@H]1O[C@@H](n2ccc3c(N)ncnc32)[C@H](O)[C@@H]1O` [Compound 181], the IC50 on PRMT5-MEP50 enzyme is 0.0195 µM; in the test on A549 cells, 0.0661 µM.
`CCN1CCC2(CC1)CC(F)(F)CN2C[C@H]1O[C@@H](n2ccc3c(N)ncnc32)[C@H](O)[C@@H]1O` [Compound 182]: the IC50 at PRMT5-MEP50 enzyme is 0.0155 µM; with A549 cells it was 0.501 µM.
With `Nc1ncnc2c1ccn2[C@@H]1O[C@H](CN2CC(F)(F)CC23CCN(CCc2ccc(F)cc2)CC3)[C@@H](O)[C@H]1O` [Compound 183], the IC50 at PRMT5-MEP50 enzyme was 0.0224 µM; in the test on A549 cells it was about 0.24 µM.
For `CC(C)CCN1CCC2(CC1)CC(F)(F)CN2C[C@H]1O[C@@H](n2ccc3c(N)ncnc32)[C@H](O)[C@@H]1O` [Compound 184], in that order: 0.0676 µM and about 1.48 µM.
Consider `Nc1ncnc2c1ccn2[C@@H]1O[C@H](CN2CC(F)(F)CC23CCN(CCC2CC2)CC3)[C@@H](O)[C@H]1O` [Compound 185], for which the IC50 at PRMT5-MEP50 enzyme was 0.0251 µM; in the test on A549 cells it was 0.589 µM.
Consider `CN1CCC2(CCCN(C[C@H]3O[C@@H](n4ccc5c(N)ncnc54)[C@H](O)[C@@H]3O)C2)C1` (some centres unmarked) [Compound 186], for which the IC50 at PRMT5-MEP50 enzyme was 0.0135 µM; with A549 cells, 0.617 µM.
The corresponding values for `CN(C)CC[C@@H]1CCCN1C[C@H]1O[C@@H](n2ccc3c(N)ncnc32)[C@H](O)[C@@H]1O` [Compound 187] are 0.0631 µM and 1.7 µM.
Turning to `CN1CCC2(CC1)CC(F)(F)CN2C[C@H]1O[C@@H](n2ccc3c(Cl)ncnc32)[C@H](O)[C@@H]1O` [Compound 188], the IC50 at PRMT5-MEP50 enzyme is 0.372 µM; in the test with A549 cells, 0.708 µM.
Turning to `CN1CCC2(CCCN2C[C@H]2O[C@@H](n3cnc4cncnc43)[C@H](O)[C@@H]2O)CC1` [Compound 191], at PRMT5-MEP50 enzyme, the “pIC50 Assay 1” value was found to be 5.04. The IC50 in the test on A549 cells was over 10 µM.
Regarding `N#CCN1CCC2(CCCN2C[C@H]2O[C@@H](n3ccc4c(N)ncnc43)[C@H](O)[C@@H]2O)CC1` [Compound 192], the values for the IC50 at PRMT5-MEP50 enzyme and with A549 cells were 0.0692 µM and 0.0832 µM, respectively.
With `N#CCCN1CCC2(CCCN2C[C@H]2O[C@@H](n3ccc4c(N)ncnc43)[C@H](O)[C@@H]2O)CC1` [Compound 193], the IC50 is 0.186 µM at PRMT5-MEP50 enzyme and 0.468 µM in the test with A549 cells.
Consider `COCCN1CCC2(CCCN2C[C@H]2O[C@@H](n3ccc4c(N)ncnc43)[C@H](O)[C@@H]2O)CC1` [Compound 194], for which the IC50 on PRMT5-MEP50 enzyme is 0.427 µM; in the test with A549 cells, about 5.62 µM.
The corresponding values for `CNC(=O)CCN1CCC2(CCCN2C[C@H]2O[C@@H](n3ccc4c(N)ncnc43)[C@H](O)[C@@H]2O)CC1` [Compound 195] are 0.537 µM and over 10 µM.
Turning to `Nc1ncnc2c1ccn2[C@@H]1O[C@H](CN2CCCC23CCN(CC(F)F)CC3)[C@@H](O)[C@H]1O` [Compound 196], the IC50 on PRMT5-MEP50 enzyme is 1.15 µM; in the test with A549 cells, 3.24 µM.
For the molecule `CNC(=O)CN1CCC2(CCCN2C[C@H]2O[C@@H](n3ccc4c(N)ncnc43)[C@H](O)[C@@H]2O)CC1` [Compound 197], the IC50 at PRMT5-MEP50 enzyme is 6.46 µM; in the test with A549 cells, over 10 µM.
In the case of `Nc1ncnc2c1ccn2[C@@H]1O[C@H](CN2CCCC23CCN(C2COC2)CC3)[C@@H](O)[C@H]1O` [Compound 198], the IC50 at PRMT5-MEP50 enzyme is 0.437 µM; with A549 cells it was about 1.1 µM.
As to `Nc1ncnc2c1ccn2[C@@H]1O[C@H](CN2CCCC23CCN(Cc2cccnn2)CC3)[C@@H](O)[C@H]1O` [Compound 199], the IC50 at PRMT5-MEP50 enzyme was 0.891 µM; in the test on A549 cells, 1.86 µM.
Turning to `Nc1ncnc2c1ccn2[C@@H]1O[C@H](CN2CCCC23CCN(Cc2nccs2)CC3)[C@@H](O)[C@H]1O` [Compound 200], the IC50 on PRMT5-MEP50 enzyme was 4.79 µM; in the test with A549 cells, over 10 µM.
Turning to `Nc1ncnc2c1ccn2[C@@H]1O[C@H](CN2CCCC23CCN(CC2OCCc4ccccc42)CC3)[C@@H](O)[C@H]1O` (some centres unmarked) [Compound 201], the IC50 on PRMT5-MEP50 enzyme was 0.457 µM; in the test on A549 cells it was about 10.2 µM.
Consider `Nc1ncnc2c1ccn2[C@@H]1O[C@H](CN2CCCC23CCN(CC(F)(F)F)CC3)[C@@H](O)[C@H]1O` [Compound 202], for which the IC50 was 2 µM on PRMT5-MEP50 enzyme and about 4.68 µM in the test with A549 cells.
For `CN1CCC2(CCCN2C[C@H]2O[C@@H](n3ccc4c(NCc5ccc(F)cc5)ncnc43)[C@H](O)[C@@H]2O)CC1` [Compound 203], in that order: 0.209 µM and 0.661 µM.
Consider `CN1CCC2(CCCN2C[C@H]2O[C@@H](n3ccc4c(NCCc5ccc(F)cc5)ncnc43)[C@H](O)[C@@H]2O)CC1` [Compound 204], for which the IC50 at PRMT5-MEP50 enzyme was 0.372 µM; in the test with A549 cells it was 1.38 µM.
